Assay results as given in article PMC4294780, “Sustained signalling by PTH modulates IP3 accumulation and IP3 receptors through cyclic AMP junctions” (Journal of Cell Science, 2015).
Ends that are not written are not given here.

Legend:
HEK-PR1 cells [1] = assay: Potentiation of carbachol-evoked Ca2+ signals by 8-Br-cAMP in HEK-PR1 cells; type: cell-based; details: n = 3; for Peak [Ca2+]c: 8-Br-cAMP 10 mM, then carbachol 20 µM; for pEC50 / Δ[Ca2+]c (maximal potentiated increase): carbachol 20 µM
Source text: (§1) Results are shown as mean±s.e.m.

EPAC1 and EPAC2 = assay: Effect of EPAC antagonist ESI-09 on Ca2+ signals in HEK-PR1 cells; type: cell-based
Experimental: (§2) HEK-PR1 cells (∼10^5 PTH1R/cell) were cultured as described previously ([Tovey et al., 2008]). Measurements of [Ca^2+]c in cell populations were performed as previously described ([Tovey et al., 2008]). Briefly, confluent cultures of HEK-PR1 grown in 96-well plates were loaded with fluo 4 by incubation with fluo 4AM (2 µM, 20°C) in HEPES-buffered saline (HBS). HBS had the following composition (in mM): NaCl 135, KCl 5.9, MgCl2 1.2, CaCl2 1.5, HEPES 11.6 and glucose 11.5, pH 7.3. After 1 h, loading medium was replaced with HBS, and after 45 min cells were used at 20°C for measurements of [Ca^2+]c. A fluorescence plate-reader equipped to allow automated fluid additions (FlexStation 3, Molecular Devices, Sunnyvale, CA, USA) was used to record fluorescence at intervals of 1.44 s (excitation at 485 nm; emission at >525 nm) ([Tovey et al., 2006]).

PKA = assay: Effect of PKA inhibitor H89 on PTH(1-34)-evoked cAMP and potentiated Ca2+ signals; type: cell-based; details: H89 10 µM, 20 min; for intracellular cAMP in H89-treated cells relative to matched control cells: mean±s.e.m., n = 3, SEM
Experimental: These assays were performed under conditions that replicate those used for measurements of [Ca^2+]c. HEK-PR1 cells were grown in 24-well plates until ∼90% confluent, [^3H]adenine (2 µCi per well) was then added to the culture medium. After 2 h at 37°C in 5% CO2, the medium was removed, cells were washed with HBS, and used for experiments in HBS at 20°C. Because many cells extrude cAMP into the extracellular medium ([Copsel et al., 2011]), reactions were terminated by first removing the medium and then adding ice-cold trichloroacetic acid (5% v/v, 1 ml). After 30 min on ice, [^3H]cAMP was separated from other ^3H-adenine nucleotides by sequential column chromatography on Dowex cation exchange resin and alumina as previously described ([Pantazaka et al., 2013]). The activity of the eluates was determined by liquid scintillation counting and amounts of [^3H]cAMP are expressed as percentages of the sum of the activities recovered in the [^3H]cAMP, [^3H]ADP and [^3H]ATP fractions.

adenylyl cyclase = assay: Potentiation of carbachol-evoked Ca2+ signals by NKH477 in HEK-PR1 cells; type: cell-based; details: n = 3; for Peak [Ca2+]c: NKH477 200 µM, then carbachol 20 µM; for pEC50 / Δ[Ca2+]c (maximal potentiated increase): carbachol 20 µM
Source text: as §1

PTH1R [2] = molecular target: T1, PTH1R (Homo sapiens, UniProt Q03431); assay: Potentiation of carbachol-evoked Ca2+ signals by PTH analogues (fluo 4, HEK-PR1 cell populations); type: cell-based; details: then carbachol 20 µM in Ca2+-free HBS, n = 3, read-out: peak [Ca2+]c pEC50 (converted)
T1 construct: expressed in transfected cells
T1 sequence (Q03431 27-593): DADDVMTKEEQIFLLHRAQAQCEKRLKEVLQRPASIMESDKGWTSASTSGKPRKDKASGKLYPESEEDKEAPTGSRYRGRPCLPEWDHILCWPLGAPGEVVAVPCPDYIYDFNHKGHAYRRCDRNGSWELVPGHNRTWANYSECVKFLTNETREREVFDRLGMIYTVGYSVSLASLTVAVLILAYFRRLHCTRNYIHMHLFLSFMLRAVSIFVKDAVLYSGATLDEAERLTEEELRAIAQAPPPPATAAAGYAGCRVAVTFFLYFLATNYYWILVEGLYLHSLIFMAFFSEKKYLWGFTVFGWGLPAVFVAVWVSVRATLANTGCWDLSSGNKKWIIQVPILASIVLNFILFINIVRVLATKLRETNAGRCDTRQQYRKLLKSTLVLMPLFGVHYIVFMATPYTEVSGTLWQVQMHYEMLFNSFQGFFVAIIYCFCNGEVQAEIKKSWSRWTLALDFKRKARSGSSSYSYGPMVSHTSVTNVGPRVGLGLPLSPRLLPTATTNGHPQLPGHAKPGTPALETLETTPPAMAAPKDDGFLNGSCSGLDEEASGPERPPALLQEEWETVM
Experimental: Briefly, confluent cultures of HEK-PR1 grown in 96-well plates were loaded with fluo 4 by incubation with fluo 4AM (2 µM, 20°C) in HEPES-buffered saline (HBS). […] After 1 h, loading medium was replaced with HBS, and after 45 min cells were used at 20°C for measurements of [Ca^2+]c.
Concentration–effect relationships were fitted to Hill equations using Prism version 5 (GraphPad, San Diego, CA, USA). Results are shown as mean±s.e.m. […] All statistical comparisons are therefore between experiments performed in parallel and analysed using paired Student's t-tests.

PTH1R [3] = molecular target: T1, PTH1R; assay: Intracellular cAMP accumulation ([3H]adenine labelling) in HEK-PR1 cells; type: cell-based; details: n = 3, read-out: cAMP pEC50 (converted)
Experimental: These assays were performed under conditions that replicate those used for measurements of [Ca^2+]c. HEK-PR1 cells were grown in 24-well plates until ∼90% confluent, [^3H]adenine (2 µCi per well) was then added to the culture medium. After 2 h at 37°C in 5% CO2, the medium was removed, cells were washed with HBS, and used for experiments in HBS at 20°C. […] The activity of the eluates was determined by liquid scintillation counting and amounts of [^3H]cAMP are expressed as percentages of the sum of the activities recovered in the [^3H]cAMP, [^3H]ADP and [^3H]ATP fractions.

HEK-PR1 cells [4] = assay: Cytosolic IP3 measured with FRET sensor in single HEK-PR1 cells; type: cell-based; details: carbachol 1 mM; mean±s.e.m., n = 17 coverslips; SEM
Source text: A FRET sensor based on the IP3-binding core of IP3R1 ([Tovey and Taylor, 2013]) was used to measure cytosolic concentrations of IP3 in single HEK-PR1 cells under conditions similar to those used for measurements of [Ca^2+]c. The plasmid and properties of the sensor were as described previously ([Tovey and Taylor, 2013]). The sensor comprises the IP3-binding core attached through short linkers to enhanced cyan fluorescent protein (CFP) at its N-terminus and enhanced yellow fluorescent protein (YFP) at its C-terminus (see inset to Fig. 3A). IP3 binding causes a decrease in FRET. […] An Olympus IX71 inverted fluorescence microscope with a 40× objective and a 440 nm/520 nm dual band-pass dichroic mirror was used to record fluorescence from widefield images after excitation at 440 nm (to excite CFP). A Luca EMCCD camera (Andor Technology, Belfast, UK) was used to collect emitted fluorescence simultaneously at 1-s intervals from YFP (520–550 nm) and CFP (455–485 nm) using a Cairn Optosplit 2 image-splitter fitted with a 495-nm dichroic mirror. After correction for background fluorescence (determined from cytosolic areas of non-transfected cells), FRET ratios are presented as the ratio of CFP emission to YFP emission, so that the ratio increases (decreased FRET) after IP3 binding.

PTH1R [5] = details: Table S1, properties from the literature; ref Cupp et al., 2013 and others listed in Table S1; cited from earlier work
PTH1R [6] = tested on: PTH1R; design: method as in 2 sources, one per row (each row's own in cited_ref): ref Cupp et al., 2013 and others listed in Table S1 ||| ref supplementary material Table S1; details: Table S1, properties from the literature; ref Cupp et al., 2013 and others listed in Table S1; cited from earlier work
PTH1R [7] = molecular target: T1, PTH1R; assay: Ca2+ signals directly evoked by PTH analogues alone in HEK-PR1 cells; type: cell-based; details: highest concentrations of the analogue, no carbachol (Fig. 1F)
Experimental: as §2

[8] = PTH analogue 1 min, mean ± s.e.m., SEM

Nc1ncnc2c1nc(Br)n2[C@@H]1O[C@@H]2COP(=O)(O)O[C@H]2[C@H]1O [8-Br-cAMP]
Peak [Ca2+]c (HEK-PR1 cells [1]; 5 min): 386 ± 21 nM
Peak [Ca2+]c (HEK-PR1 cells [1]; 30 min): 222 ± 24 nM
pEC50 (HEK-PR1 cells [1]; 8-Br-cAMP 5 min): 3.5 ± 0.1 /M
Δ[Ca2+]c (maximal potentiated increase) (HEK-PR1 cells [1]; 8-Br-cAMP 5 min): 207 ± 7 nM
pEC50 (HEK-PR1 cells [1]; 8-Br-cAMP 30 min): 3.7 ± 0.1 /M
Δ[Ca2+]c (maximal potentiated increase) (HEK-PR1 cells [1]; 8-Br-cAMP 30 min): 113 ± 5 nM

CC(C)(C)c1cc(C(=O)C(C#N)=NNc2cccc(Cl)c2)no1 [ESI-09, 3-[5-(tert-butyl)isoxazol-3-yl]-2-[2-(3-chlorophenyl)hydrazono]-3-oxopropanenitril]
effect on Ca2+ signals evoked by carbachol alone (EPAC1 and EPAC2; ESI-09 10 µM, 5 min): no significant effect
effect on concentration-dependent potentiation by PTH(1-34) of carbachol-evoked Ca2+ signals (EPAC1 and EPAC2; ESI-09 10 µM, 5 min): no significant effect
effect on small Ca2+ signals directly evoked by high concentrations of PTH(1-34) (EPAC1 and EPAC2; ESI-09 10 µM, 5 min): no significant effect
effect on potentiation of carbachol-evoked Ca2+ signals by 8-Br-cAMP (EPAC1 and EPAC2; ESI-09 10 µM, added 5 min before 8-Br-cAMP): unaffected
effect on carbachol-evoked Ca2+ release (EPAC1 and EPAC2; higher concentrations of ESI-09 (50 µM) or more prolonged treatments (15 min)): directly inhibited carbachol-evoked Ca^2+ release

Cl.Cl.O=S(=O)(NCCNCC=Cc1ccc(Br)cc1)c1cccc2cnccc12 [H89, N-[2-[[3-(4-bromophenyl)-2-propenyl]amino]ethyl]-5-isoquinolinesulfonamide dihydrochloride]
effect of PKA inhibition on acute and sustained effects of PTH(1-34), NKH477 or 8-Br-cAMP on carbachol-evoked Ca2+ signals (PKA): no effect
intracellular cAMP in H89-treated cells relative to matched control cells (PKA; 3 µM PTH(1-34) for 1 min): 95±0.1%
intracellular cAMP in H89-treated cells relative to matched control cells (PKA; 3 µM PTH(1-34) for 60 min): 98±0.2%

C=C[C@@]1(C)CC(=O)[C@]2(O)[C@@]3(C)[C@@H](O)CCC(C)(C)[C@@H]3C(OC(=O)CCN(C)C)[C@H](OC(C)=O)[C@@]2(C)O1.Cl (stereo partly drawn) [NKH477, N,N-dimethyl-(3R,4aR,5S,6aS,10S,10aR,10bS)-5-(acetyloxy)-3-ethenyldodecahydro-10,10b-dihydroxy-3,4a,7,7,10a-pentamethyl-1-oxo-1H-naphtho[2,1-b]pyran-6-yl ester β-alanine hydrochloride]
Peak [Ca2+]c (adenylyl cyclase; 2 min): 331 ± 20 nM
Peak [Ca2+]c (adenylyl cyclase; 30 min): 256 ± 12 nM
pEC50 (adenylyl cyclase; NKH477 2 min): 5.0 ± 0.3 /M
Δ[Ca2+]c (maximal potentiated increase) (adenylyl cyclase; NKH477 2 min): 257 ± 3 nM
pEC50 (adenylyl cyclase; NKH477 5 min): 5.0 ± 0.1 /M
Δ[Ca2+]c (maximal potentiated increase) (adenylyl cyclase; NKH477 5 min): 225 ± 9 nM
pEC50 (adenylyl cyclase; NKH477 15 min): 5.0 ± 0.1 /M
Δ[Ca2+]c (maximal potentiated increase) (adenylyl cyclase; NKH477 15 min): 155 ± 10 nM
pEC50 (adenylyl cyclase; NKH477 30 min): 6.0 ± 0.1 /M
Δ[Ca2+]c (maximal potentiated increase) (adenylyl cyclase; NKH477 30 min): 124 ± 24 nM

CC[C@H](C)[C@H](NC(=O)[C@H](CCC(=O)O)NC(=O)[C@H](CO)NC(=O)[C@@H](NC(=O)[C@@H](N)Cc1ccc(O)cc1)C(C)C)C(=O)N[C@@H](CCC(N)=O)C(=O)N[C@@H](CC(C)C)C(=O)N[C@@H](CCSC)C(=O)N[C@@H](Cc1c[nH]cn1)C(=O)N[C@@H](CC(N)=O)C(=O)N[C@@H](CC(C)C)C(=O)NCC(=O)N[C@@H](CCCCN)C(=O)N[C@@H](Cc1c[nH]cn1)C(=O)N[C@@H](CC(C)C)C(=O)N[C@@H](CC(N)=O)C(=O)N[C@@H](CO)C(=O)N[C@@H](CCSC)C(=O)N[C@@H](CCC(=O)O)C(=O)N[C@@H](CCCNC(=N)N)C(=O)N[C@H](C(=O)N[C@@H](CCC(=O)O)C(=O)N[C@@H](Cc1c[nH]c2ccccc12)C(=O)N[C@@H](CC(C)C)C(=O)N[C@@H](CCCNC(=N)N)C(=O)N[C@@H](CCCCN)C(=O)N[C@@H](CCCCN)C(=O)N[C@@H](CC(C)C)C(=O)N[C@@H](CCC(N)=O)C(=O)N[C@@H](CC(=O)O)C(=O)N[C@H](C(=O)N[C@@H](Cc1c[nH]cn1)C(=O)N[C@@H](CC(N)=O)C(=O)N[C@@H](Cc1ccccc1)C(=O)O)C(C)C)C(C)C [Tyr1PTH(1-34)]
EC50 (PTH1R [2]; [8]): 200 nM
EC50 (PTH1R [2]; PTH analogue 30 min): 39.8 nM
EC50 (PTH1R [3]; PTH analogue 1 min): 794 nM
EC50 (PTH1R [3]; PTH analogue 30 min): 200 nM

C[N+](C)(C)CCOC(N)=O [carbachol, Carbamylcholine chloride]
transfected cells responding with discernible FRET changes (HEK-PR1 cells [4]): 52±2%

PTH(3-34): PTH analogue not used in this study, included for comparison with earlier work (SEIQLMHNLGKHLNSMERVEWLRKKLQDVHNF; Parathyroid hormone; UniProt P01270 34-65, looked up, fragment)
Gq (PLC) (PTH1R [5]): Inactive
Signalling to AC from internalized PTH1R (PTH1R [6]): No

SVSEIQLMHNLGKHLNSMERVEWLRKKLQDV [PTH(1-31), analogue of PTH that stimulates adenylyl cyclase]
direct Ca2+ signal evoked by the analogue alone (PTH1R [7]): directly evoked small Ca^2+ signals
Signalling to AC from internalized PTH1R (PTH1R [6]): Yes

VSEIQLMHNLGKHLNSMERVEWLRKKLQDVHNFVALG [PTH(2-38)]
EC50 (PTH1R [2]; [8]): 126 nM
EC50 (PTH1R [2]; PTH analogue 30 min): 50.1 nM
EC50 (PTH1R [3]; PTH analogue 1 min): 316 nM
EC50 (PTH1R [3]; PTH analogue 30 min): 63.1 nM
